Source: US11021464B2, “Crystalline forms of 4-(tert-butoxyamino)-6-(6-(trifluoromethyl)pyridin-2-yl)-N-(2-(trifluoromethyl)pyridin-4-yl)-1,3,5-triazin-2-amine methanesulfonic acid salt” (CHIA TAI TIANQING PHARMACEUTICAL GROUP CO., LTD., priority 2017, dated 2021)
Where two headings read alike, the source gives them in different places. One block for each compound: values may come before it.

How the values were obtained:
[1] = Hygroscopicity test of various salts (Chinese Pharmacopoeia 2010, Part II, Appendix XIX J); assay type: physicochemical; details: HR = 80% ± 2
Procedure: The various acid addition salts of the compound of Formula I were tested according to “Guiding Principles for Drug Hygroscopicity Test” described in the Chinese Pharmacopoeia, 2010 edition, Part II, Appendix XIX J. The increased weights by hygroscopy of the samples were calculated respectively, and the results are shown in Table 11.

[2] = Stability test of various salts, high temperature and high humidity (Chinese Pharmacopoeia 2010, Part II, Appendix XIX C); assay type: physicochemical; details: for Purity before test: before high temperature and high humidity test
Procedure: The stability of the various acid addition salts of the compound of Formula I were tested according to the method described in the Chinese Pharmacopoeia, 2010 edition, Part II, Appendix XIX C.

[3] = target: T1, IDH2 (R172K, 40-end) (Homo sapiens, UniProt P48735, R172K); assay: Inhibitory activity test against IDH2 (NADPH decrease, diaphorase/resazurin fluorescence); assay type: biochemical
T1 sequence (P48735 40-452 R172K): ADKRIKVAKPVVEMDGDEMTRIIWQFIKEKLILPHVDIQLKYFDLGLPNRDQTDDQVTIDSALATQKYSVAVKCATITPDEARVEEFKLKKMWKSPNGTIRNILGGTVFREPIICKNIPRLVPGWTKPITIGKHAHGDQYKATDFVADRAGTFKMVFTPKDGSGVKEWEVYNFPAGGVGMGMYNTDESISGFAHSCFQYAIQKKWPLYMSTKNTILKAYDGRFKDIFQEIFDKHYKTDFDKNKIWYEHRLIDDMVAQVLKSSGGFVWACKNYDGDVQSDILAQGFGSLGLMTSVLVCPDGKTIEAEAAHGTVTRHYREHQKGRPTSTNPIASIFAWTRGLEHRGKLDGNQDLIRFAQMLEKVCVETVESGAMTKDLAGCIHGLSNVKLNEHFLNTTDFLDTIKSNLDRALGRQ
Procedure: The inhibitory activity of the compound of the present application against IDH2 (R172K, 40-end) was determined by using the following method.
The inhibitory activity of a compound against IDH2 (R172K, 40-end) was determined by the decrease of a helper factor NADPH (reduced coenzyme II). The test compound was pre-incubated with an enzyme and NADPH, and then a reaction was initiated by the addition of a-KG, and performed for 120 minutes under a linear condition. Then, the reaction was terminated by the addition of diaphorase (lipoamide dehydrogenase) and the corresponding substrate resazurin. Diaphorase terminated the IDH2m reaction by decreasing the available helper factor NADPH, which oxidized NADPH to NADP (oxidized coenzyme II), and reduced resazurin to highly fluorescent resorufin. The amount of remaining helper factor NADPH after a specific reaction time was quantified via an easily detectable fluorophore.
Specifically, 2.5 μl of a 3-fold gradient diluted test compound was added to a 384-well plate, and then 5 μl of a reaction buffer (20 mM Tris-HCl, PH7.5; 150 mM NaCl; 10 mM MgCl2; 10 mM MnCl2; 0.4 mg/ml BSA and 2 mM DTT) containing 80 nM IDH2 (R172K, 40-end) and 40 μM NADPH was added. Then, the resulting test mixture was incubated for 120 minutes at a temperature of 23° C., and then 2.5 μl of the reaction buffer containing 4 mM a-KG was added to initiate the reaction. After incubating for 120 minutes at room temperature, 5 μl of a termination mixture (0.4 U/ml diaphorase and 40 μM resazurin) prepared with the reaction buffer was added to convert resazurin to resorufin to determine the remaining NADPH.

[4] = system: relapsed and refractory AML; details: cited from earlier work
[5] = Pharmacokinetic test in SD rats, intragastric 50 mg/kg of salts and crystalline forms; assay type: in vivo; details: 50 mg/kg (in free base)
Procedure: Number and gender: 20, males;
Twenty male SPF SD rats were randomly divided into 4 groups, fasted (free access to water) overnight, and then intragastrically administered with 50 mg/kg of the crystalline Form I of the mesylate of the compound of Formula I (Example 11), 50 mg/kg of the crystalline Form II of the mesylate of the compound of Formula I (Example 12), 50 mg/kg of the crystalline Form VIII of the mesylate of the compound of Formula I (Example 19) and 50 mg/kg of the hydrochloride salt of the compound of Formula I (Example 7), respectively (in basic group). Blood samples (0.2˜0.3 mL) were taken from the orbital of the rats at the blood collection time points 0.25 h, 0.5 h, 1 h, 2 h, 3 h, 4 h, 6 h, 8 h, 10 h, 24 h, 30 h and 48 h after administration. The whole blood collected was then placed in EDTA-K2 centrifuge tubes, stored at 4° C., and centrifuged for 10 min at a speed of 4000 rpm at 4° C. within 0.5 h to separate plasma. After the collection of all the plasma, it was stored at −20° C. within 1 h. Pharmacokinetic parameters (PK parameters) were calculated using DAS 3.2.1 software according to the non-compartment statistical moment theory, and the results are shown in Table 15.

[6] = Pharmacokinetic test in rats, single intragastric dose of 5 mg/kg; assay type: in vivo; details: male rats
Procedure: Healthy male adult rats (7-9 weeks old) were used, each group of animals (3 male rats) was intragastrically administered once at a single dose of 5 mg/kg. The animals in the intragastric administration group were fasted overnight before this study. The fasting time period was from 10 hours before administration to 4 hours after administration.
Blood samples were taken at 0.25, 0.5, 1, 2, 4, 6, 8 and 24 h after administration. The animals were anesthetized with isoflurane using a small animal anesthesia machine, and then 0.3 mL whole blood samples were taken from the fundus venous plexus. The blood samples were placed in heparin anticoagulant tubes, and centrifuged for 5 min at 4° C. and 4000 rpm. The resulting plasma samples were transferred to centrifuge tubes, and stored at −80° C. until analysis.
Verified liquid chromatography-tandem mass spectrometry (LC-MS/MS) method was used to analyze the plasma samples. Plasma concentration-time data of individual animals were analyzed using WinNonlin (Professional Edition, version 6.3; Pharsight Company) software. The non-compartmental model was introduced for concentration analysis. The pharmacokinetic parameters (PK parameters) of the compounds were calculated.

[7] = listed as The crystalline Form VIII of the mesylate of the compound of Formula I, 50 mg/kg
[8] = male, SD, rat, plasma, po, 50 mg/kg
[9] = listed as The crystalline Form II of the mesylate of the compound of Formula I, 50 mg/kg

SMILES: CC(C)(O)CNc1nc(Nc2ccnc(C(F)(F)F)c2)nc(-c2cccc(C(F)(F)F)n2)n1 [AG-221, Enasidenib]
IC50 [3]: 68 nM
complete remission rate (CR) [4]: up to 27%
overall response rate (ORR) [4]: up to 41%
effective patients who insist on the treatment for at least 6 months ([4]; effective patients): 76%
effective patients with a stable condition ([4]; effective patients): 44%

SMILES: CC(C)(C)ONc1nc(Nc2ccnc(C(F)(F)F)c2)nc(-c2cccc(C(F)(F)F)n2)n1 [The compound of Formula I, 4-(tert-butoxyamino)-6-(6-(trifluoromethyl)pyridin-2-yl)-N-(2-(trifluoromethyl)pyridin-4-yl)-1,3,5-triazin-2-amine]
half-life (in words) [6]: long half-life
plasma concentration compared with AG-221 at the same dosage (in words) [6]: higher than AG-221
inhibitory activity compared with AG-221 (in words) ([3]; IDH2 (R172K, 40-end)): better inhibitory activity than AG-221
IC50 ([3]; IDH2 (R172K, 40-end), 80 nM enzyme, 40 μM NADPH, read-out: IC50): 32 nM

SMILES: CC(C)(C)ONc1nc(Nc2ccnc(C(F)(F)F)c2)nc(-c2cccc(C(F)(F)F)n2)n1.CS(=O)(=O)O [4-(tert-butoxyamino)-6-(6-(trifluoromethyl)pyridin-2-yl)-N-(2-(trifluoromethyl)pyridin-4-yl)-1,3,5-triazin-2-amine methanesulfonic acid salt]
Increased Weights by Hygroscopy [1]: 1.0%
Purity after high temperature and high humidity test [2]: 99.22%
Purity before test [2]: 98.82%
AUC(0-t) [5, 7]: 42249 ng·h/mL
AUC(0-∞) [5, 7]: 43976 ng·h/mL
Cmax [5, 7]: 2102 ng/mL
MRT(0-t) [5, 7]: 15.0 h
T1/2 [5, 7]: 9.53 h
Tmax [5, 7]: 8.80 h
AUC(0-inf) [5, 8]: 47400 ng·h/mL
half-life [5, 8]: 10.4 h
AUC(0-t) ([5]; male, SD, rat, plasma, po, 50 mg/kg, read-out: AUC(0-t)): 43900 ng·h/mL
Cmax ([5]; male, SD, rat, plasma, po, 50 mg/kg, read-out: Cmax): 1730 ng/mL
MRT last ([5]; male, SD, rat, plasma, po, 50 mg/kg, read-out: MRT(0-t)): 16.5 h
Tmax ([5]; male, SD, rat, plasma, po, 50 mg/kg, read-out: Tmax): 6.6 h

SMILES: CC(C)(C)ONc1nc(Nc2ccnc(C(F)(F)F)c2)nc(-c2cccc(C(F)(F)F)n2)n1.O=C(O)/C=C\C(=O)O [Maleate (Example 10)]
Increased Weights by Hygroscopy [1]: 2.2%

SMILES: CC(C)(C)ONc1nc(Nc2ccnc(C(F)(F)F)c2)nc(-c2cccc(C(F)(F)F)n2)n1.CS(=O)(=O)O [The mesylate (Example 12), 4-(tert-butoxyamino)-6-(6-(trifluoromethyl)pyridin-2-yl)-N-(2-(trifluoromethyl)pyridin-4-yl)-1,3,5-triazin-2-amine methanesulfonic acid salt]
AUC(0-t) [5, 9]: 42249 ng·h/mL
AUC(0-∞) [5, 9]: 43976 ng·h/mL
Cmax [5, 9]: 2102 ng/mL
MRT(0-t) [5, 9]: 15.0 h
T1/2 [5, 9]: 9.53 h
Tmax [5, 9]: 8.80 h

Other lines, results leading:

Increased Weights by Hygroscopy [1]: 1.3%
Purity after high temperature and high humidity test [2]: 93.58%
Purity before test [2]: 99.30%
SMILES: CC(C)(C)ONc1nc(Nc2ccnc(C(F)(F)F)c2)nc(-c2cccc(C(F)(F)F)n2)n1.O=S(=O)(O)O [The sulfate (Example 8)]

Increased Weights by Hygroscopy [1]: 0.7%
Purity after high temperature and high humidity test [2]: 97.63%
Purity before test [2]: 98.79%
SMILES: CC(C)(C)ONc1nc(Nc2ccnc(C(F)(F)F)c2)nc(-c2cccc(C(F)(F)F)n2)n1.Cc1ccc(S(=O)(=O)O)cc1 [The p-toluenesulfonate (Example 9)]

Increased Weights by Hygroscopy [1]: 0.9%
Purity after high temperature and high humidity test [2]: 99.62%
Purity before test [2]: 98.85%
AUC(0-t) [5]: 48570.9 ng·h/mL
AUC(0-∞) [5]: 55252.1 ng·h/mL
Cmax [5]: 1642 ng/mL
MRT(0-t) [5]: 18.02 h
T1/2 [5]: 13.67 h
Tmax [5]: 10.6 h
SMILES: CC(C)(C)ONc1nc(Nc2ccnc(C(F)(F)F)c2)nc(-c2cccc(C(F)(F)F)n2)n1.Cl [The hydrochloride salt (Example 7)]
